Laboratory results: patent publication US20260215432A1, “ANTIMICROBIAL CONJUGATED OLIGOELECTROLYTES AND METHODS THEREOF” (National University of Singapore, priority 2023, published 2026)

What was measured:
[1] = tested on: E. coli. K12 (ATCC 10798); test: MIC, broth microdilution in CA-MHB; format: cell-based; settings: ATCC 10798, Table 7
Procedure: Antimicrobial activity was screened against a range of pathogens made up of clinically relevant ESKAPE pathogens by determination of the minimum inhibitory concentration (MIC) in cation-adjusted Mueller-Hinton broth (CA-MHB).
(§1) Minimum inhibitory concentrations of COEs were determined through a broth microdilution method in accordance with the Clinical and Laboratory Standards Institute (CLSI) guidelines M07-A10. A single bacterial colony was isolated from an overnight culture and grown to mid-log phase (OD600~0.8). Compounds were prepared as a stock solution in DMSO and diluted in a sterile flat-bottom 96-well plate in CA-MHB. Subsequent concentrations were prepared by two-fold dilution of the initial solution. An equivalent volume of bacteria was added to the compound to a final concentration of 5×10^5 cfu/mL. Plates were incubated at 37° C. for 16-18 hours, and read at OD600 using a microplate reader (TECAN Spark®). […] MIC values were determined for each compound in triplicate.

[2] = tested on: methicillin-resistant S. aureus (USA300); test: MIC of compounds 1-5; format: cell-based; settings: USA300, Table 7
Procedure: as §1, with “triplicate. For each test, Polymyxin B (Gram-negative) or vancomycin (Gram-positive) was used as a positive control.” for “triplicate.”

| SMILES | MIC E. coli K12 [1] | MIC MRSA [2] |
| --- | --- | --- |
| [I-].[I-].c1ccc([P+](CCCCCCCCOc2ccc(/N=N/c3ccc(OCCCCCCCC[P+](c4ccccc4)(c4ccccc4)c4ccccc4)cc3)cc2)(c2ccccc2)c2ccccc2)cc1 [Compound 3] | 32 µg/mL | 4 µg/mL |
| C(=C\c1cc(OCCC[P+](c2ccccc2)(c2ccccc2)c2ccccc2)cc(OCCC[P+](c2ccccc2)(c2ccccc2)c2ccccc2)c1)/c1ccc(/C=C/c2cc(OCCC[P+](c3ccccc3)(c3ccccc3)c3ccccc3)cc(OCCC[P+](c3ccccc3)(c3ccccc3)c3ccccc3)c2)cc1.[I-].[I-].[I-].[I-] [Compound 5] | 64 µg/mL | 32 µg/mL |
